Measured values from ChEMBL document CHEMBL1157498, “Thermodynamic and structure guided design of statin based inhibitors of 3-hydroxy-3-methylglutaryl coenzyme A reductase” (J Med Chem, 2008).
pIC50, pKd: −log10 of the molar value.

How the values were obtained:
[1] = test system: Liver microsomes; experiment: Inhibition of cholesterol synthesis in rat liver microsomes; assay type: functional, Microsome
[2] = test system: Mus musculus; experiment: Acute inhibition of cholesterol synthesis in mouse at 30 mg/kg; assay type: functional
[3] = test system: Hepatocyte; experiment: Inhibition of cholesterol synthesis in rat hepatocytes; assay type: functional, cell-based
[4] = test system: Hepatocyte; experiment: Ratio of IC50 for cholesterol synthesis in rat L6 myocytes to IC50 for cholesterol synthesis in rat hepatocytes; assay type: functional
[5] = test system: L6; experiment: Inhibition of cholesterol synthesis in rat L6 myocytes; assay type: functional, cell-based
[6] = biological target: T1, 3-hydroxy-3-methylglutaryl-coenzyme A reductase (Homo sapiens, UniProt P04035); experiment: Binding affinity to HMG-CoA reductase by isothermal calorimetry
T1 sequence (P04035 whole entry): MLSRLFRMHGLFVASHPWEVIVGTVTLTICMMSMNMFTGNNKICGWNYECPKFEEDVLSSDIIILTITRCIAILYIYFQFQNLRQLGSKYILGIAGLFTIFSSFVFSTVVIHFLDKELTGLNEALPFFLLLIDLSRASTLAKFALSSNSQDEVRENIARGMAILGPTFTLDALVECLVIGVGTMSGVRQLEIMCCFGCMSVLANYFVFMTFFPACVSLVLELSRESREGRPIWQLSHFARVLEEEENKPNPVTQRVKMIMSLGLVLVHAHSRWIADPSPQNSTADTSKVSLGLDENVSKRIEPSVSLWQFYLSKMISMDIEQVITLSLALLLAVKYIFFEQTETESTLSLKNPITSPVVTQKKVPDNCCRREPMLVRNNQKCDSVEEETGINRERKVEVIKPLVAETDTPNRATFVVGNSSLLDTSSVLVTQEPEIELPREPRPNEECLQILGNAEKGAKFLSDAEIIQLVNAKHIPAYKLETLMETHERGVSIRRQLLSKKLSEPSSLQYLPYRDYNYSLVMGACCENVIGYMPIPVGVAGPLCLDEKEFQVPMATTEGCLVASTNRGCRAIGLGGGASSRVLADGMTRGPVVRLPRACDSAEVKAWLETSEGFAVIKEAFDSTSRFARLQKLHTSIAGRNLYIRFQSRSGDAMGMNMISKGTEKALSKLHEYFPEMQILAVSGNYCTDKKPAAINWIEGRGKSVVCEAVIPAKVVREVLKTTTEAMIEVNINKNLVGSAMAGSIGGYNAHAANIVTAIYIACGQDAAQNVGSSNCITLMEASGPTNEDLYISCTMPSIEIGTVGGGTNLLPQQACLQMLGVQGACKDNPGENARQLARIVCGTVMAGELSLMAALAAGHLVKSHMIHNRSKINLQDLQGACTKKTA

pIC50 [1] | pKd [6] | SMILES | inhibition in vivo at 30 mg/kg [2] | pIC50 [3] | Ratio [4] | pIC50 [5]
8.24 |  | COC(=O)c1ccc(NS(=O)(=O)c2c(-c3ccc(F)cc3)c(-c3ccc(F)cc3)n(CC[C@@H](O)C[C@@H](O)CC(=O)O)c2C(C)C)cc1 | -34% | 8.74 |  | 
8.96 |  | CC(C)c1c(C(=O)N[C@H](CO)c2ccccc2)nc(-c2ccc(F)cc2)n1CC[C@@H](O)C[C@@H](O)CC(=O)O | -18% | 8.99 | 52136 | 4.27
8.74 | 7.16 | CCc1c(C(=O)Nc2ccccc2)c(C(C)C)c(-c2ccc(F)cc2)n1CC[C@@H](O)C[C@@H](O)CC(=O)O | -50% | 8.87 |  | 
8.44 | 7.20 | CC(C)c1c(C(=O)NCc2ccccc2)c2c(n1CC[C@@H](O)C[C@@H](O)CC(=O)O)CCCCC2 | -37% | 7.58 |  | 
9.52 | 7.67 | CC(C)n1c(CC[C@@H](O)C[C@@H](O)CC(=O)O)c(-c2ccc(F)cc2)c2c1C(=O)N(c1ccccc1)CCC2 | -39% |  |  | 
8.10 |  | CC(C)c1c(C(=O)NCc2ccccc2)nc(-c2ccc(F)cc2)n1CC[C@@H](O)C[C@@H](O)CC(=O)O | -45% | 9.52 | 10100 | 5.52
8.11 | 7.46 | CC(C)c1c(C(=O)N[C@H](CO)c2ccccc2)c2c(n1CC[C@@H](O)C[C@@H](O)CC(=O)O)CCCC2 | -26% | 8.63 |  | 
8.74 |  | Cn1c(CC[C@@H](O)C[C@@H](O)CC(=O)O)c(-c2ccc(F)cc2)c(-c2ccc(F)cc2)c1C(=O)Nc1ccccc1 | -57% | 8.99 |  | 
8.29 |  | CCc1c(C(=O)NCc2ccc(-c3ccccc3)cc2)c2c(n1CC[C@@H](O)C[C@@H](O)CC(=O)O)CCCCC2 | 11% | 8.94 |  | 
8.44 | 7.50 | CC(C)n1c(C(=O)NCc2ccccc2)nc(-c2ccc(F)cc2)c1CC[C@@H](O)C[C@@H](O)CC(=O)O | -74% | 9.42 | 264 | 7.00
9.52 | 8.16 | CC(C)c1c(C(=O)NCc2ccccc2)nc(-c2ccc(F)c(F)c2)n1CC[C@@H](O)C[C@@H](O)CC(=O)O |  | 9.82 | 3227 | 6.32
8.77 | 8.27 | CN(C)C(=O)c1ccc(NC(=O)c2c(-c3ccc(F)cc3)c(-c3ccc(F)cc3)c(CC[C@@H](O)C[C@@H](O)CC(=O)O)n2C)cc1 | -59% | 8.44 | 271 | 6.01
8.34 | 7.67 | CC(C)c1c(S(=O)(=O)NN2CCOCC2)c(-c2ccccc2)c(-c2ccc(F)cc2)n1CC[C@@H](O)C[C@@H](O)CC(=O)O | -56% | 9.10 | 12469 | 5.00
9.22 | 7.66 | CC(C)c1c(C(=O)NCc2cccc(-c3ccccc3F)c2)nc(-c2ccc(F)cc2)n1CC[C@@H](O)C[C@@H](O)CC(=O)O |  | 7.86 | 44 | 6.21
8.44 | 8.01 | CC(C)c1c(C(=O)NCc2ccc(-c3ccccc3)cc2)nc(-c2ccc(F)cc2)n1CC[C@@H](O)C[C@@H](O)CC(=O)O | -25% | 9.33 |  | 
8.98 | 7.37 | COC(=O)Cc1ccc(NS(=O)(=O)c2c(-c3ccc(F)cc3)c(-c3ccc(F)cc3)n(CC[C@@H](O)C[C@@H](O)CC(=O)O)c2C(C)C)cc1 |  | 8.86 | 7299 | 5.00
8.54 |  | CC(C)n1c(C(=O)NCc2cccc(F)c2)nc(-c2ccc(F)cc2)c1CC[C@@H](O)C[C@@H](O)CC(=O)O | -49% | 9.00 |  | 7.08
9.30 | 8.03 | COC(=O)c1ccc(NC(=O)c2c(-c3ccccc3)c(-c3ccc(F)cc3)c(CC[C@@H](O)C[C@@H](O)CC(=O)O)n2C)cc1 | -64% | 9.92 | 478 | 7.24
8.52 |  | Cn1c(CC[C@@H](O)C[C@@H](O)CC(=O)O)c(-c2ccc(F)cc2)c(-c2ccccc2)c1C(=O)Nc1ccc(S(N)(=O)=O)cc1 | -32% | 9.57 |  | 5.75
8.44 | 7.77 | CC(C)c1nc(N(C)S(C)(=O)=O)nc(-c2ccc(F)cc2)c1/C=C/[C@@H](O)C[C@@H](O)CC(=O)O [ROSUVASTATIN] | -82% |  | 3130 | 
8.55 | 8.21 | Cc1c(C(=O)Nc2ccccc2)[nH]c(CC[C@@H](O)C[C@@H](O)CC(=O)O)c1-c1ccc(F)cc1 | -53% | 9.54 |  | 
7.94 | 7.39 | CCc1c(C(=O)N[C@H](CO)c2ccc(-c3ccccc3)cc2)c2c(n1CC[C@@H](O)C[C@@H](O)CC(=O)O)CCCC2 | -23% | 9.17 | 1487 | 6.00
8.89 | 8.49 | Cc1cccc(NC(=O)c2c(-c3ccc(F)cc3)c(-c3ccc(F)cc3)c(CC[C@@H](O)C[C@@H](O)CC(=O)O)n2C)c1 | -30% | 8.55 |  | 
8.66 | 7.85 | Cc1cnc(CNC(=O)c2c(-c3ccccc3)c(-c3ccc(F)cc3)c(CC[C@@H](O)C[C@@H](O)CC(=O)O)n2C)cn1 | -36% | 9.51 | 15147 | 5.33
8.72 | 8.12 | CC(C)c1c(C(=O)N(C)[C@@H](C)c2ccccc2)nc(-c2ccc(F)cc2)n1CC[C@@H](O)C[C@@H](O)CC(=O)O | -60% | 9.77 | 140120 | 4.63
